Data: PMC11372264, “^61Cu-PSMA–Targeted PET for Prostate Cancer: From Radiotracer Development to First-in-Human Imaging” (Journal of Nuclear Medicine, 2024)

Tested on: LNCaP xenografts
Experiment: Biodistribution in LNCaP xenografts
Assay type: in vivo, mice
Procedure: All animal experiments were conducted in accordance with Swiss animal welfare laws and regulations under license number 30515 granted by the Veterinary Office, Department of Health, Canton Basel-Stadt, Switzerland. Male athymic nude-Foxn1^nu/Foxn1^+ mice (Envigo), 4–6 wk old, were inoculated subcutaneously on the shoulder with 10^7 LNCaP cells, freshly suspended in a 1:1 ratio of sterile minimum essential medium with basal medium Eagle and Matrigel. The tumors were allowed to grow to a volume of approximately 200 mm^3.
The biodistribution of [^61Cu]Cu-DOTAGA-PSMA-I&T and [^61Cu]Cu-NODAGA-PSMA-I&T (100 µL/200 pmol/2–3 MBq) was compared with that of [^68Ga]Ga-DOTAGA-PSMA-I&T, [^68Ga]Ga-NODAGA-PSMA-I&T, and [^68Ga]Ga-PSMA-11 (100 µL/200 pmol/3–5 MBq), as well as [^18F]PSMA-1007 (100 µL/70 pmol/15 MBq). This comparison was conducted at 1 h after injection for all radiotracers and at 4 h after injection for the ^61Cu-labeled tracers and [^18F]PSMA-1007. The specificity of the ^61Cu-labeled tracers was assessed at 1 h after injection by blocking studies with 2-(phosphonomethyl)pentanedioic acid (100 µL/1.3 µmol) being injected 3–5 min before the injection of the radiotracer.

[1] = 1 h after injection, blocking with 2-(phosphonomethyl)pentanedioic acid 1.3 µmol

## O=C([O-])CN1CCN(CC(=O)[O-])CCN(C(CCC(=O)N[C@H](Cc2ccc(O)c(I)c2)C(=O)N[C@H](Cc2ccccc2)C(=O)N[C@H](CCCCNC(=O)CCCCCCC(=O)NCCCC[C@H](NC(=O)N[C@@H](CCC(=O)O)C(=O)O)C(=O)O)C(=O)O)C(=O)O)CC1.[61Cu+2] (stereo partly drawn) [[^61Cu]Cu-NODAGA-PSMA-I&T, NODAGA-(l-y)fk(sub-KuE)]
1 h after injection
  Biodistribution, Adrenals: 17.3 ± 3.26 %IA/g
  Biodistribution, Blood: 0.28 ± 0.06 %IA/g
  Biodistribution, Femur: 2.73 ± 0.91 %IA/g
  Biodistribution, Heart: 0.45 ± 0.15 %IA/g
  Biodistribution, Intestine: 2.11 ± 0.78 %IA/g
  Biodistribution, Kidneys: 118 ± 13 %IA/g
  Biodistribution, Liver: 1.02 ± 0.28 %IA/g
  Biodistribution, Lung: 1.69 ± 0.45 %IA/g
  Biodistribution, Muscles: 1.12 ± 0.32 %IA/g
  Biodistribution, Pancreas: 0.97 ± 0.36 %IA/g
  Biodistribution, Salivary glands: 2.01 ± 0.33 %IA/g
  Biodistribution, Spleen: 6.04 ± 1.87 %IA/g
  Biodistribution, Stomach: 1.13 ± 0.20 %IA/g
  Biodistribution, Tumor (tumor uptake): 14.0 ± 5.0 %IA/g
  Tumor-to-Adrenals ratio: 0.92 ± 0.20
  Tumor-to-Blood ratio: 55.8 ± 20.0
  Tumor-to-Intestine ratio: 7.87 ± 2.93
  Tumor-to-Kidneys ratio: 0.13 ± 0.03
  Tumor-to-Liver ratio: 14.9 ± 4.9
  Tumor-to-Muscles ratio: 13.6 ± 3.75
  Tumor-to-Salivary glands ratio: 7.83 ± 3.16
  Tumor-to-Spleen ratio: 2.86 ± 1.37
[1]
  Biodistribution, Adrenals: 0.95 ± 0.16 %IA/g
  Biodistribution, Blood: 0.19 ± 0.01 %IA/g
  Biodistribution, Femur: 0.39 ± 0.24 %IA/g
  Biodistribution, Heart: 0.33 ± 0.03 %IA/g
  Biodistribution, Intestine: 0.87 ± 0.10 %IA/g
  Biodistribution, Kidneys: 4.59 ± 0.35 %IA/g
  Biodistribution, Liver: 1.29 ± 0.21 %IA/g
  Biodistribution, Lung: 0.67 ± 0.06 %IA/g
  Biodistribution, Muscles: 0.32 ± 0.06 %IA/g
  Biodistribution, Pancreas: 0.28 ± 0.17 %IA/g
  Biodistribution, Salivary glands: 0.51 ± 0.20 %IA/g
  Biodistribution, Spleen: 0.33 ± 0.08 %IA/g
  Biodistribution, Stomach: 0.62 ± 0.04 %IA/g
  Biodistribution, Tumor: 0.68 ± 0.55 %IA/g
4 h after injection
  Biodistribution, Adrenals: 8.32 ± 2.87 %IA/g
  Biodistribution, Blood: 0.10 ± 0.03 %IA/g
  Biodistribution, Femur: 1.34 ± 0.48 %IA/g
  Biodistribution, Heart: 0.22 ± 0.05 %IA/g
  Biodistribution, Intestine: 1.06 ± 0.50 %IA/g
  Biodistribution, Kidneys: 90.9 ± 10.1 %IA/g
  Biodistribution, Liver: 0.72 ± 0.11 %IA/g
  Biodistribution, Lung: 0.74 ± 0.19 %IA/g
  Biodistribution, Muscles: 0.50 ± 0.22 %IA/g
  Biodistribution, Pancreas: 0.45 ± 0.09 %IA/g
  Biodistribution, Salivary glands: 0.52 ± 0.06 %IA/g
  Biodistribution, Spleen: 1.28 ± 0.39 %IA/g
  Biodistribution, Stomach: 0.66 ± 0.15 %IA/g
  Biodistribution, Tumor (tumor uptake): 10.7 ± 3.3 %IA/g
  Tumor-to-Adrenals ratio: 1.44 ± 0.65
  Tumor-to-Blood ratio: 109 ± 43
  Tumor-to-Intestine ratio: 12.5 ± 6.7
  Tumor-to-Kidneys ratio: 0.12 ± 0.03
  Tumor-to-Liver ratio: 15.4 ± 5.7
  Tumor-to-Muscles ratio: 25.4 ± 12.0
  Tumor-to-Salivary glands ratio: 19.5 ± 7.1
  Tumor-to-Spleen ratio: 9.16 ± 3.84
